Source: PubChem BioAssay AID256 (DTP/NCI, 2004)
Where “and” joins values, the source holds several entries; their conditions need not be identical. Identical values can stand only once. Toxic doses and inconclusive results are not listed. How the source made its calls: active means survival T/C of 150% or more; inactive means T/C below 125% in these data.

Test system: CD2F1 mice, L1210 leukemia ip, survival T/C
Experiment: NCI In Vivo Anticancer Drug Screen. Data for tumor model L1210 Leukemia (intraperitoneal) in CD2F1 (CDF1) mice
Details: higher = longer survival
In short: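 Read-out first: treated-group measurement over vehicle-control measurement, expressed as a ratio. Animals bore a transplanted tumor line and were dosed with compound or vehicle.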

[1] = endpoint: mean survival time, dose: 25.0 mg/kg/injection, schedule: Q04DX002 (ip), vehicle: saline with Tween-80
[2] = endpoint: mean survival time, dose: 100.0 mg/kg/injection, schedule: Q04DX003 (ip), vehicle: saline with Tween-80
[3] = endpoint: mean survival time, dose: 200.0 mg/kg/injection, schedule: Q04DX003 (ip), vehicle: saline with Tween-80
[4] = endpoint: mean survival time, dose: 400.0 mg/kg/injection, schedule: Q04DX003 (ip), vehicle: saline with Tween-80
[5] = endpoint: mean survival time, dose: 100.0 mg/kg/injection, schedule: Q04DX002 (ip), vehicle: saline with Tween-80
[6] = endpoint: mean survival time, dose: 400.0 mg/kg/injection, schedule: Q04DX002 (ip), vehicle: saline with Tween-80
[7] = endpoint: mean survival time, dose: 100.0 mg/kg/injection, schedule: Q01DX001 (ip), vehicle: saline with Tween-80
[8] = endpoint: mean survival time, dose: 200.0 mg/kg/injection, schedule: Q01DX001 (ip), vehicle: saline with Tween-80
[9] = endpoint: mean survival time, dose: 400.0 mg/kg/injection, schedule: Q01DX001 (ip), vehicle: saline with Tween-80

Measured: T/C

C=C(C)C1CCC2(C(=O)OC)CCC3(C)C(CCC4C5(C)CCC(OC6CCCCO6)C(C)(C)C5CCC43C)C12 (stereo unspecified)
inactive: endpoint: mean survival time, dose: 6.25 mg/kg/injection, schedule: Q04DX002 (ip), vehicle: saline with Tween-80 103 % of control | endpoint: mean survival time, dose: 12.5 mg/kg/injection, schedule: Q04DX002 (ip), vehicle: saline with Tween-80 95 % of control | [1] 86 % of control

Oc1cc(O)c2c(c1)OC(c1ccc(O)c(O)c1)C(OC1(c3cc(O)c(O)c(O)c3)Oc3cc(O)cc(O)c3C(O)C1O)C2 (stereo unspecified)
inactive: endpoint: mean survival time, dose: 100.0 mg/kg/injection, schedule: Q04DX003 (ip), vehicle: saline 109 % of control | endpoint: mean survival time, dose: 200.0 mg/kg/injection, schedule: Q04DX003 (ip), vehicle: saline 95 % of control | endpoint: mean survival time, dose: 400.0 mg/kg/injection, schedule: Q04DX003 (ip), vehicle: saline 107 % of control

CC12CCC(C/C1=C\C#N)C(C)(C)O2 (stereo unspecified)
inactive: endpoint: mean survival time, dose: 50.0 mg/kg/injection, schedule: Q01DX009 (ip), vehicle: Klucel (hydroxypropylcellulose) (HPC) 97 % of control | endpoint: mean survival time, dose: 100.0 mg/kg/injection, schedule: Q01DX009 (ip), vehicle: Klucel (hydroxypropylcellulose) (HPC) 94 % of control | endpoint: mean survival time, dose: 200.0 mg/kg/injection, schedule: Q01DX009 (ip), vehicle: Klucel (hydroxypropylcellulose) (HPC) 105 % of control

Nc1nc2c(ncn2-c2cccc(C(F)(F)F)c2)c(=O)[nH]1
inactive: [2] 94 % of control | [3] 89 % of control | [4] 92 % of control

Cc1cc(O)c(N=Nc2ccc(C(=O)O)cc2)cc1C
inactive: endpoint: mean survival time, dose: 12.5 mg/kg/injection, schedule: Q01DX009 (ip), vehicle: saline 106 % of control | endpoint: mean survival time, dose: 12.5 mg/kg/injection, schedule: Q01DX009 (ip), vehicle: suspension in saline 97 % of control | endpoint: mean survival time, dose: 25.0 mg/kg/injection, schedule: Q01DX009 (ip), vehicle: saline 110 % of control | endpoint: mean survival time, dose: 25.0 mg/kg/injection, schedule: Q01DX009 (ip), vehicle: suspension in saline 101 % of control | endpoint: mean survival time, dose: 50.0 mg/kg/injection, schedule: Q01DX009 (ip), vehicle: saline 111 % of control | endpoint: mean survival time, dose: 50.0 mg/kg/injection, schedule: Q01DX009 (ip), vehicle: suspension in saline 95 % of control | endpoint: mean survival time, dose: 100.0 mg/kg/injection, schedule: Q01DX009 (ip), vehicle: saline 94 % of control | endpoint: mean survival time, dose: 100.0 mg/kg/injection, schedule: Q01DX009 (ip), vehicle: suspension in saline 94 % of control | endpoint: mean survival time, dose: 200.0 mg/kg/injection, schedule: Q01DX009 (ip), vehicle: suspension in saline 97 % of control | endpoint: mean survival time, dose: 400.0 mg/kg/injection, schedule: Q01DX009 (ip), vehicle: saline 93 % of control | endpoint: mean survival time, dose: 400.0 mg/kg/injection, schedule: Q01DX009 (ip), vehicle: suspension in saline 101 % of control

ClC1C2CCC(C2)C1(Cl)Cl (stereo unspecified)
inactive: endpoint: mean survival time, dose: 0.3 mg/kg/injection, schedule: Q01DX001 (ip), vehicle: saline with Tween-80 100 % of control | endpoint: mean survival time, dose: 0.6 mg/kg/injection, schedule: Q01DX001 (ip), vehicle: saline with Tween-80 103 % of control | endpoint: mean survival time, dose: 1.2 mg/kg/injection, schedule: Q01DX001 (ip), vehicle: saline with Tween-80 102 % of control

CN(C)C(=O)Nc1nc2ccccc2s1
inactive: [1] 103 % of control | endpoint: mean survival time, dose: 50.0 mg/kg/injection, schedule: Q04DX002 (ip), vehicle: saline with Tween-80 95 % of control | [5] 115 % of control and 93 % of control | [6] 90 % of control

CC1SC(C)SC(C)S1 (stereo unspecified)
inactive: endpoint: mean survival time, dose: 75.0 mg/kg/injection, schedule: Q01DX001 (ip), vehicle: saline with Tween-80 98 % of control | endpoint: mean survival time, dose: 150.0 mg/kg/injection, schedule: Q01DX001 (ip), vehicle: saline with Tween-80 98 % of control | endpoint: mean survival time, dose: 300.0 mg/kg/injection, schedule: Q01DX001 (ip), vehicle: saline with Tween-80 102 % of control

Cc1cc(Cc2ccc(N=C=O)c(C)c2)ccc1N=C=O
inactive: [2] 103 % of control | endpoint: mean survival time, dose: 200.0 mg/kg/injection, schedule: Q01DX009 (ip), vehicle: saline with Tween-80 89 % of control | [3] 111 % of control | endpoint: mean survival time, dose: 400.0 mg/kg/injection, schedule: Q01DX009 (ip), vehicle: saline with Tween-80 89 % of control | [4] 106 % of control

c1cnc2c(OB(C3CCCCC3)C3CCCCC3)cccc2c1
inactive: [7] 105 % of control | [8] 91 % of control | [9] 91 % of control

CCOC(=O)CNC(=O)c1ccc(N(CCCl)CCCl)cc1
inactive: endpoint: mean survival time, dose: 100.0 mg/kg/injection, schedule: Q04DX003 (ip), vehicle: Klucel (hydroxypropylcellulose) (HPC) 95 % of control | endpoint: mean survival time, dose: 200.0 mg/kg/injection, schedule: Q04DX003 (ip), vehicle: Klucel (hydroxypropylcellulose) (HPC) 96 % of control | endpoint: mean survival time, dose: 400.0 mg/kg/injection, schedule: Q04DX003 (ip), vehicle: Klucel (hydroxypropylcellulose) (HPC) 104 % of control

O=S(=O)(O)O.[NH-]CC(=O)O.[NH-]CC(=O)O.[NH-]CC(=O)O.[NH-]CC(=O)O.[Pt+2].[Pt+2]
inactive: endpoint: mean survival time, dose: 3.13 mg/kg/injection, schedule: Q04DX003 (ip), vehicle: distilled water + Tween-80 101 % of control | endpoint: mean survival time, dose: 6.25 mg/kg/injection, schedule: Q04DX003 (ip), vehicle: distilled water + Tween-80 104 % of control | endpoint: mean survival time, dose: 12.5 mg/kg/injection, schedule: Q04DX003 (ip), vehicle: distilled water + Tween-80 97 % of control | endpoint: mean survival time, dose: 25.0 mg/kg/injection, schedule: Q04DX003 (ip), vehicle: distilled water + Tween-80 112 % of control | endpoint: mean survival time, dose: 50.0 mg/kg/injection, schedule: Q04DX003 (ip), vehicle: distilled water + Tween-80 98 % of control

CN1CCN(CCCN2C(=O)C3CC=CCC3C2=O)CC1 (stereo unspecified)
inactive: endpoint: mean survival time, dose: 100.0 mg/kg/injection, schedule: Q01DX001 (ip), vehicle: saline 102 % of control | endpoint: mean survival time, dose: 200.0 mg/kg/injection, schedule: Q01DX001 (ip), vehicle: saline 93 % of control

C1CCC(C2CCCC[N-]2)[N-]C1.CSCCC([NH-])C(=O)O.[Cl][Pt] (stereo unspecified)
inactive: endpoint: median survival time, dose: 10.0 mg/kg/injection, schedule: Q04DX003 (ip), vehicle: saline 101 % of control | endpoint: median survival time, dose: 20.0 mg/kg/injection, schedule: Q04DX003 (ip), vehicle: saline 101 % of control | endpoint: median survival time, dose: 40.0 mg/kg/injection, schedule: Q04DX003 (ip), vehicle: saline 94 % of control | endpoint: median survival time, dose: 80.0 mg/kg/injection, schedule: Q04DX003 (ip), vehicle: saline 101 % of control and 103 % of control | endpoint: median survival time, dose: 160.0 mg/kg/injection, schedule: Q04DX003 (ip), vehicle: saline 96 % of control | endpoint: median survival time, dose: 320.0 mg/kg/injection, schedule: Q04DX003 (ip), vehicle: saline 108 % of control

O=C1C=CC(=O)N1c1ccc(Cl)cc1Br
inactive: endpoint: mean survival time, dose: 5.0 mg/kg/injection, schedule: Q04DX003 (ip), vehicle: saline with Tween-80 95 % of control | endpoint: mean survival time, dose: 10.0 mg/kg/injection, schedule: Q04DX003 (ip), vehicle: saline with Tween-80 89 % of control | endpoint: mean survival time, dose: 20.0 mg/kg/injection, schedule: Q04DX003 (ip), vehicle: saline with Tween-80 92 % of control

Cc1cc(N(C)C)c(C)cc1N=Nc1cc[n+]([O-])cc1
inactive: endpoint: mean survival time, dose: 56.3 mg/kg/injection, schedule: Q04DX002 (ip), vehicle: saline with Tween-80 96 % of control | endpoint: mean survival time, dose: 113.0 mg/kg/injection, schedule: Q04DX002 (ip), vehicle: saline with Tween-80 92 % of control

Cc1cc(C)c(NC(=O)CC#N)cc1C
inactive: endpoint: mean survival time, dose: 25.0 mg/kg/injection, schedule: Q04DX003 (ip), vehicle: saline with Tween-80 113 % of control and 93 % of control | endpoint: mean survival time, dose: 50.0 mg/kg/injection, schedule: Q04DX003 (ip), vehicle: saline with Tween-80 89 % of control and 103 % of control | [7] 100 % of control | [5] 90 % of control | [8] 102 % of control | endpoint: mean survival time, dose: 200.0 mg/kg/injection, schedule: Q04DX002 (ip), vehicle: saline with Tween-80 102 % of control | [9] 102 % of control | [6] 105 % of control | [4] 93 % of control
